From article PMC11487390, “Design and Synthesis of 1,3-Diarylpyrazoles and Investigation of Their Cytotoxicity and Antiparasitic Profile” (International Journal of Molecular Sciences, 2024)
Where a name gives a salt, the structure may show the parent alone. Read-outs that look alike come from different tables or passages of the source.

Key:
[1] = target: Toll-like receptor 9 (TLR9); set-up: method as in PMID 27537371; details: readout of a cellular assay, cited from earlier work
[2] = tested on: Trypanosoma cruzi Tulahuen CL2 strain; assay: Intracellular T. cruzi assay in MRC-5 cells (β-galactosidase/CPRG, 7 days); format: cell-based; details: intracellular in MRC-5 cells
How it was run: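 MRC-5SV2 fibroblasts infected with β-galactosidase-expressing T. cruzi Tulahuen CL2 and exposed to compounds (10 concentrations, 64 µM to 0.2 nM; DMSO <1%) for 7 days at 37 °C, 5% CO2. Parasite growth read by CPRG absorbance at 540 nm after 4 h versus untreated infected controls; EC50 calculated.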

[3] = tested on: primary mouse macrophages (PMMs); assay: Cytotoxicity against primary peritoneal mouse macrophages (PMM); format: cell-based; details: Macrophage
Experimental: The series of final products (13–69) was investigated in vitro on the human fetal lung fibroblast cell line MRC-5 (Table 1) to assess cytotoxicity toward normal (i.e., non-malignant) human cells. […] As explained earlier, these are important pathogens for humans or cattle (T. b. brucei) and a persistent need for new therapeutics exists for these parasites. As a part of the antiparasitic tests, cytotoxicity against primary mouse macrophages (PMMs) was also evaluated. These murine cells serve as host cells for parasites in the L. infantum assay. Therefore, the murine macrophage assay not only offers additional cytotoxicological insight but is also essential to interpreting the readout of the L. infantum assay.
The MRC-5SV2 human lung fibroblast cell line was cultured in MEM + Earle’s salts-medium, supplemented with 2 mM L-glutamine, 16.5 mM NaHCO3, and 5% inactivated fetal calf serum. For evaluating the antileishmanial activity, the L. infantum MHOM/MA(BE)/67 strain was used. This strain was maintained in a Golden hamster (Mesocricetus auratus). Amastigotes were collected from the spleen of an infected donor hamster using differential centrifugation. Primary peritoneal mouse macrophages were used as host cells and were collected 2 days after peritoneal stimulation with a 2% potato starch suspension. For the intracellular T. cruzi assays, the Tulahuen CL2 strain was used that expresses β-galactosidase. The strain was maintained in MRC-5SV2 cells in MEM medium. The T. b. brucei Squib 427 strain or T. b. rhodesiense STIB-900 strain was used for screening against the extracellular African trypanosomes. The strains were maintained in Hirumi’s Modified Iscove’s medium-9 (HMI-9), supplemented with 10% inactivated fetal calf serum. All cultures and assays were performed at 37 °C with 5% CO2.
Primary peritoneal mouse macrophages (PMMs) were prepared in RPMI-1640 medium, supplemented with 2 mM L-glutamine, 16.5 mM NaHCO3, and 5% inactivated fetal calf serum. The macrophages are infected after 48 h with spleen-derived L. infantum amastigotes (3 × 10^4 PMM + 4.5 × 10^5 parasites/well). The compounds were added after 2 h of infection. After 5 days incubation, parasite burdens (mean number of amastigotes/macrophage) were assessed microscopically after staining with a 10% Giemsa solution and EC50 values were calculated.

[4] = tested on: T. b. rhodesiense STIB-900 strain; assay: T. b. rhodesiense growth assay (resazurin, 3 days); format: cell-based, Trypanosoma brucei rhodesiense
How it was run: (§1)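 Bloodstream parasites in HMI-9 with 10% FCS at 37 °C, 5% CO2, 1.5 × 10^4 (T. b. brucei) or 4 × 10^3 (T. b. rhodesiense) per well, exposed to 10 concentrations from 64 µM to 0.2 nM. After 3 days resazurin added, fluorescence read after 24 h or 6 h respectively; EC50 derived.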

[5] = Cytotoxicity assay, MRC-5SV2 cells, resazurin, 3 days; format: cell-based; details: human, MRC-5SV2 human lung fibroblast cells, MRC-5 cells, highest concentration 64 µM
How it was run: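 MRC-5SV2 fibroblasts (1.5 × 10^5 cells/mL, MEM, 5% FCS) exposed 3 days at 37 °C, 5% CO2 to 64–0.25 µM (4-fold), DMSO <1%. Viability by resazurin (10 µg mL^−1, 4 h) fluorescence; EC50 interpolated from flanking points around 50% inhibition.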

[6] = tested on: L. infantum MHOM/MA(BE)/67 strain; assay: L. infantum intracellular amastigote assay in PMM (Giemsa, 5 days); format: cell-based, Leishmania infantum
How it was run: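 Primary mouse peritoneal macrophages were infected with spleen-derived amastigotes (3 × 10^4 PMM + 4.5 × 10^5 parasites/well), and compound was added 2 h post-infection. Ten concentrations (64 µM to 0.2 nM; DMSO <1%) were incubated 5 days at 37 °C, 5% CO2. Giemsa-stained amastigotes per macrophage were counted microscopically to give EC50.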

[7] = tested on: T. b. brucei Squib 427 strain; assay: T. b. brucei growth assay (resazurin, 3 days); format: cell-based, Trypanosoma brucei brucei
How it was run: as §1

[8] = Trypanosoma cruzi, TULAHUEN, MRC5, 168 h
[9] = Leishmania infantum, 120 h, read-out: L. inf. (EC50, µM), amastigotes in PMM, 5 days
[10] = Trypanosoma brucei, RHODESIENSE, 72 h, 3 days, read-out: T. b. rhod. (EC50)
[11] = Leishmania infantum, 120 h, amastigotes in PMM, 5 days, read-out: L. inf. (EC50)
[12] = Trypanosoma brucei, 72 h, 3 days, read-out: T. b. bruc. (EC50)
[13] = Trypanosoma brucei, RHODESIENSE, 72 h, read-out: T. b. rhod. (EC50, µM), 3 days
[14] = Trypanosoma brucei, 72 h, read-out: T. b. bruc. (EC50, µM), 3 days

| SMILES | EC50 ([1]; read-out: EC50 for TLR9 antagonism) [µM] | EC50 [2, 8] [µM] | EC50 [2] [µM] | EC50 [3] [µM] | EC50 ([4]; read-out: T. b. rhod. (EC50), 3 days) [µM] | EC50 ([4]; read-out: T. b. rhod. (EC50), 3 days, listed as 26/HIT 8) [µM] | EC50 at 3 days [5] [µM] | EC50 [6, 9] [µM] | EC50 ([6]; read-out: L. inf. (EC50), amastigotes in PMM, 5 days) [µM] | EC50 ([7]; read-out: T. b. bruc. (EC50), 3 days) [µM] | EC50 ([7]; read-out: T. b. bruc. (EC50), 3 days, listed as 26/HIT 8) [µM] | EC50 for TLR9 antagonism [1] | EC50 [4, 10] [µM] | EC50 [6, 11] [µM] | EC50 [7, 12] [µM] | EC50 [4, 13] [µM] | EC50 [7, 14] [µM] |
| --- | --- | --- | --- | --- | --- | --- | --- | --- | --- | --- | --- | --- | --- | --- | --- | --- | --- |
| c1ccc(-n2cc(CNCCN3CCCC3)c(-c3ccc4c(c3)OCCO4)n2)cc1 [Compound 26, N-((3-(2,3-dihydrobenzo[b][1,4]dioxin-6-yl)-1-phenyl-1H-pyrazol-4-yl)methyl)-2-(pyrrolidin-1-yl)ethan-1-amine dihydrochloride] | 3.16 | < 10 | 7.92 | 32 | 1.75 | < 10 | 21.7 | < 10 | 8.3 | 1.52 | < 10 |  |  |  |  |  |  |
| CN(C)CCCNCc1cn(-c2ccccc2)nc1-c1ccc2c(c1)OCCO2.Cl.Cl [Compound 29, N^1-((3-(2,3-dihydrobenzo[b][1,4]dioxin-6-yl)-1-phenyl-1H-pyrazol-4-yl)methyl)-N^3,N^3-dimethylpropane-1,3-diamine dihydrochloride] |  |  |  |  |  |  | 5.14 |  |  |  |  | grossly comparable potency |  |  |  |  |  |
| O=C(Nc1ccc(F)cc1)c1cn(-c2ccccc2)nc1-c1ccc2c(c1)OCCO2 [Compound 31, 3-(2,3-dihydrobenzo[b][1,4]dioxin-6-yl)-N-(4-fluorophenyl)-1-phenyl-1H-pyrazole-4-carboxamide] |  | 7.38 |  | > 64 |  |  | > 64 |  |  |  |  |  | 3.12 | > 64 | 6.73 |  |  |
| CNC(=O)c1ccc(NCc2cn(-c3ccccc3)nc2-c2ccc3c(c2)OCCO3)cn1 [Compound 18, 5-(((3-(2,3-dihydrobenzo[b][1,4]dioxin-6-yl)-1-phenyl-1H-pyrazol-4-yl)methyl)amino)-N-methylpicolinamide] |  | > 64 |  | 32 |  |  | 49.9 |  |  |  |  |  | > 64 | 9.19 | > 64 |  |  |
| CNC(=O)c1cc(Oc2ccc(NC(=O)c3cn(-c4ccccc4)nc3-c3ccc4c(c3)OCCO4)cc2)ccn1 [Compound 38, 4-(4-(3-(2,3-dihydrobenzo[b][1,4]dioxin-6-yl)-1-phenyl-1H-pyrazole-4-carboxamido)phenoxy)-N-methylpicolinamide] |  | > 64 |  | > 64 |  |  | 6.35 |  |  |  |  |  | 1.75 | > 64 | 8 |  |  |
| c1ccc(-n2cc(CNCCc3ccncc3)c(-c3ccc4c(c3)OCCO4)n2)cc1 [Compound 19, N-((3-(2,3-dihydrobenzo[b][1,4]dioxin-6-yl)-1-phenyl-1H-pyrazol-4-yl)methyl)-2-(pyridin-4-yl)ethan-1-amine hydrochloride] |  | 7.46 |  | 32 |  |  | 20.2 | 20.3 |  |  |  |  |  |  |  | 1.72 | 6.27 |
| c1ccc(-n2cc(CNCCN3CCOCC3)c(-c3ccc4c(c3)OCCO4)n2)cc1 [Compound 28, N-((3-(2,3-dihydrobenzo[b][1,4]dioxin-6-yl)-1-phenyl-1H-pyrazol-4-yl)methyl)-2-morpholinoethan-1-amine dihydrochloride] |  | 30.3 |  | 32 |  |  | 29.4 | 32.5 |  |  |  |  |  |  |  | 6.27 | 7.08 |
| c1ccc(NCc2cn(-c3ccccc3)nc2-c2ccc3c(c2)OCCO3)cc1 [Compound 13, N-((3-(2,3-dihydrobenzo[b][1,4]dioxin-6-yl)-1-phenyl-1H-pyrazol-4-yl)methyl)aniline] |  | 2.23 |  | > 64 |  |  | > 64 |  |  |  |  |  | 7.32 | 10.8 | 31.4 |  |  |
